The structures appear in SMILES notation.

The source of these data is patent publication US8101750B2, “Process for the manufacturing of the compound 2-hydroxy-3-[5-(morpholin-4-ylmethyl)pyridin-2-yl]1H-indole-5-carbonitrile 701” (AstraZeneca AB, priority 2007, dated 2012).

Molecule `Cc1ccc(CN2CCOCC2)cn1` came in with a melting point of 51 to 52 °C.
